Reference: patent US20190187129A1, “CANCER MODELING PLATFORMS AND METHODS OF USING THE SAME” (Wake Forest University Health Sciences, priority 2016, published 2019)

Legend:
Type in all cases: cell-based
[1] = system: Ring constructs made with a Caco2 outer ring and a SW480 core; test: Concentric ring construct drug treatment (MTS assay, LIVE/DEAD staining)
Text: The first objective of this project was to evaluate a 3D model of a colorectal cancer tumor surrounded by normal host tissue. The engineered concentric ring construct consists of a colorectal tumor core and a colon epithelial outer ring, to model a tumor in a reductionist, yet physiologically relevant environment. This construct was used to measure the growth of the tumor core, any observed invasion of the tumor cells into the epithelial layer, and the efficacy of drugs. The constructs were created with cells suspended in a hyaluronic acid and gelatin-based hydrogel. The tumor cores were made using one of four colorectal cancer cells types, thereby providing models of 4 levels of malignancy. The HCT116 cells were the most malignant, followed by the HT29, SW480, and Caco2 cells. Caco2 cells were also employed in the outer ring, as they best resemble healthy epithelial cells. The tumor core was fluorescently labeled and fluorescent imaging was used to monitor the tumor core over the course of 7-14 days. […] Ring constructs made with a Caco2 outer ring and a SW480 core were also treated with Regorafenib, a chemotherapy agent.

CACO2 cells = test: cells; conditions: Homo sapiens, Caco-2, read-out: relative cellular viability (MTS, relative to control)
Description: (§1) Cancer cells seeded directly into wells were given 4-5 hours to reattach to the bottom of the wells. After that time, the anticancer drug solutions were administered in place of the media (FIG. 6, panel A) and an MTS assay was carried out 2 days later to determine cell viability. […] At 100 μM concentrations of Regorafenib and Sorafenib, and 100 mM concentrations of 5-FU, cellular viability remained below 20% that of the control for all four of the colorectal cancer cell lines utilized. However, screening with Dabrafenib and Trametinib produced diverging results from the other three anticancer drugs at higher concentrations. […] When treated with 1 mM concentrations of 5-FU, relative cellular viability was approximately 39% for SW480 cells and remained between 10%-22% for the HCT116, HT29, and CACO2 cells. These values were considerably lower than the relative cellular viability values for the lowest concentrations of the other anticancer drugs.
(§2) Cell Seeding: The original 15 mL centrifuge tubes containing the 10 mL of DMEM-10, cells, and trypsin were placed into a centrifuge. The centrifugation setting was 1500 RPM and at maximal acceleration for 5 minutes. After that time, the media and trypsin mixture was aspirated from the tubes, leaving the cell pellets still intact. 5 mL of DMEM-10 was then pipetted into each of the tubes, resuspending the cells in the process. Calculated volumes of the 5 mL cell-media solution were determined to ensure that 25,000 cells of each of the four colorectal cancer cell lines were seeded directly into each of the wells of a polystyrene clear-bottom 96-well plate. 100 μL of DMEM-10 media was then pipetted directly into the wells. The 96-well plates were incubated at 37° C. and 5% CO2 for 5 hours to allow the cells to reattach themselves to the bottom of the wells until media was aspirated and anticancer drug solutions were added.
(§3) Addition of Anticancer Drugs for Screening: The anticolorectal cancer drugs used in this screening included 5-FU, Regorafenib, Sorafenib, Trametinib, and Dabrafenib (Sigma-Aldrich, Missouri, USA)). High concentration drug stock solutions were created with DMSO. Lower concentration drug solutions were created by mixing the anticancer drug stocks with DMEM-10 media. […] drug solutions were generated for 5-FU; 1 μM, 10 μM, and 100 μM drug solutions were generated for Regorafenib, Sorafenib, and Dabrafenib; and 1 nM, 10 nM, and 100 nM drug solutions were generated for Trametinib. Media was carefully aspirated from the wells and 200 μL of the various drug-media solutions were placed into the wells containing cells. Three duplicates were generated for each anticancer drug concentration with each of the different cell types to calculate averages and run statistics on the data generated. Well plates were then incubated at 37° C. and 5% CO2 for […].
(§4) Cell viability assay: Cell viability was determined 48 hours after exposure to the anticancer drug solutions. The viability of the cells was examined by the CellTiter 96® AQueous One Solution Cell Proliferation (MTS) assay (Promega, Wisconsin, USA). The anticancer drug-media solutions were aspirated from the wells and 200 μL of the MTS reagent was carefully pipetted into the wells. The incubation time for the cells with the MTS reagent was approximately 45 minutes. The cell viability assay was performed on another 96-well plate and the absorbance was quantified by the EnVision Multilabel Plate Reader (PerkinElmer, California, USA).

HCT116 cells = test: cells; conditions: Homo sapiens, HCT-116, read-out: relative cellular viability (MTS, relative to control)
Description: as §1, §2, §3, §4

HT29 cells = test: cells; conditions: Homo sapiens, HT-29, read-out: relative cellular viability (MTS, relative to control)
Description: as §1, §2, §3, §4

SMILES: CNC(=O)c1cc(Oc2ccc(NC(=O)Nc3ccc(Cl)c(C(F)(F)F)c3)c(F)c2)ccn1 [Regorafenib]
- cells targeted within the ring construct (LIVE/DEAD staining) ([1]; inner ring versus outer Caco2 cells): selectively targeted the inner ring of the construct
- amount of viable cells after treatment (MTS assay) ([1]; ring construct, Caco2 outer ring, SW480 core): decrease in the amount of viable cells
- viability at 100 µM (CACO2 cells): < 20%
- viability at 100 µM (HCT116 cells): < 20%
- viability at 100 µM (HT29 cells): < 20%
